Laboratory results published in article PMC10044114, “Mechanisms of Antimicrobial Peptides from Bagasse against Human Pathogenic Bacteria” (Antibiotics, 2023).

What was measured:
Test in all cases: Broth dilution growth inhibition (OD600)
Assay type in all cases: cell-based
[1] = system: Pseudomonas aeruginosa ATCC28753; conditions: TSB, mean ± SD, triplicate; for Inhibitory percentage, P. aeruginosa: synthetic peptides
Description: (§1) Three human pathogenic bacteria were selected for investigation, namely Bacillus subtilis ATCC6633, Pseudomonas aeruginosa ATCC28753, and Burkholderia cepacia ATCC25416.
(§2) In evaluating antibacterial activity by the broth dilution assay, human pathogenic bacteria were first prepared in tryptic soy agar (TSA) (Difco BBL, Sparks, MD, USA) for 24 h at 28 °C. Then, a single colony was cultured in tryptic soy broth (TSB) (Difco BBL, Sparks, MD, USA) for 12–16 h to reach an inoculum of 0.05 at OD600. The antibacterial activity of lower than 3 kDa protein hydrolysates/peptides was then determined against the pathogens in triplicate using 96-well microplates, with bacteria in TSB, phosphate-buffered saline (PBS), and antibiotic treatment (ampicillin and kanamycin) used as controls. The final concentration of antibiotics and protein hydrolysates/peptides was 100 µg/mL. After incubation for 0, 2, 4, and 6 h, the OD600 was documented using a microplate reader (Synergy H1 Hybrid Multi-Mode Reader, Biotek, Winusky, VT, USA).
(§3) A completely randomized design was used: protein hydrolysates/peptides from six agricultural wastes, seven agro-industrial wastes, and two fishery wastes as treatments; and human pathogenic bacteria P. aeruginosa ATCC28753, Bacillus subtilis ATCC6633, and Burkholderia cepacia ATCC25416 grown in tryptic soy broth (TSB) (Difco BBL, Sparks, MD, USA) at 28 °C in 96-well plates as experimental units. Experiments were conducted in triplicate and all the results shown in this study are presented as mean ± standard deviation (SD).

[2] = system: Bacillus subtilis ATCC6633; conditions: TSB, mean ± SD, triplicate; for Inhibitory percentage, Bacillus subtilis: 100 µg/mL
Description: as §1, §2, §3

[3] = system: Burkholderia cepacia ATCC25416; conditions: TSB, mean ± SD, triplicate; for Inhibitory percentage, Burkholderia cepacia: 100 µg/mL
Description: as §1, §2, §3

[4] = lower than 3 kDa hydrolysates and antibiotics, 6 h after treatment, 96-well

Compound: CC1(C)S[C@@H]2[C@H](NC(=O)[C@H](N)c3ccccc3)C(=O)N2[C@H]1C(=O)O [ampicillin, reference compound]
- inhibition at 100 µg/mL ([1]; Pseudomonas aeruginosa, ATCC28753, lower than 3 kDa hydrolysates and antibiotics, 6 h after treatment, 96-well, read-out: Inhibitory percentage, Pseudomonas aeruginosa): 32 ± 1.59%
- inhibition at 100 µg/mL ([2]; Bacillus subtilis, ATCC6633, lower than 3 kDa hydrolysates and antibiotics, 6 h after treatment, 96-well, read-out: Inhibitory percentage, Bacillus subtilis): 85.2 ± 10.6%
- inhibition at 100 µg/mL ([3]; Burkholderia cepacia, ATCC25416, lower than 3 kDa hydrolysates and antibiotics, 6 h after treatment, 96-well, read-out: Inhibitory percentage, Burkholderia cepacia): 32.8 ± 4.18%

Compound: NC[C@H]1O[C@H](O[C@H]2[C@H](O)[C@@H](O[C@H]3O[C@H](CO)[C@@H](O)[C@H](N)[C@H]3O)[C@H](N)C[C@@H]2N)[C@H](O)[C@@H](O)[C@@H]1O [kanamycin, reference compound]
- Inhibitory percentage, Pseudomonas aeruginosa ([1]; lower than 3 kDa hydrolysates and antibiotics, 100 µg/mL, 6 h after treatment, 96-well): 39.00 ± 2.81%
- Inhibitory percentage, Bacillus subtilis [2, 4]: 77.60 ± 0.85%
- Inhibitory percentage, Burkholderia cepacia [3, 4]: 87.02 ± 0.42%

Compound: GAFHVTGL [compound 1, synthetic peptide from bagasse (AW6) hydrolysate; Photosystem II CP47 reaction center protein fragment]
- Inhibitory percentage, P. aeruginosa ([1]; 100 µg/mL): 21.74 ± 0.96
- Inhibitory percentage, Bacillus subtilis ([2]; synthetic peptides): 3.82 ± 0.09
- Inhibitory percentage, Burkholderia cepacia ([3]; synthetic peptides): 9.09 ± 0.04

Compound: NLWSNEINQDMAEF [Peptide no.3, Asn-Leu-Trp-Ser-Asn-Glu-Ile-Asn-Gln-Asp-Met-Ala-Glu-Phe, synthetic peptide from bagasse (AW6) hydrolysate; LRR receptor-like serine/threonine-protein kinase GSO2 fragment]
- Inhibitory percentage, P. aeruginosa ([1]; 100 µg/mL): 24.87 ± 0.81
- Inhibitory percentage, Bacillus subtilis ([2]; synthetic peptides): 11.33 ± 0.29
- Inhibitory percentage, Burkholderia cepacia ([3]; synthetic peptides): 23.32 ± 0.68

Compound: VLSSWGDESTL [compound 2, synthetic peptide from bagasse (AW6) hydrolysate; RNA helicase fragment]
- Inhibitory percentage, P. aeruginosa ([1]; 100 µg/mL): 23.61 ± 0.12
- Inhibitory percentage, Bacillus subtilis ([2]; synthetic peptides): 4.45 ± 0.03
- Inhibitory percentage, Burkholderia cepacia ([3]; synthetic peptides): 14.92 ± 0.72

Compound: VSNCL [Peptide no.4, Val-Ser-Asn-Cys-Leu, synthetic peptide from bagasse (AW6) hydrolysate; 3-ketoacyl-CoA synthase fragment]
- Inhibitory percentage, P. aeruginosa ([1]; 100 µg/mL): 24.70 ± 0.81
- Inhibitory percentage, Bacillus subtilis ([2]; synthetic peptides): 10.39 ± 0.33
- Inhibitory percentage, Burkholderia cepacia ([3]; synthetic peptides): 20.56 ± 0.28

Compound: WDTDNLSPDAVAAIKAAHPNVAVMAGL [compound 5, synthetic peptide from bagasse (AW6) hydrolysate; Chitinase fragment]
- Inhibitory percentage, P. aeruginosa ([1]; 100 µg/mL): 30.34 ± 0.95
- Inhibitory percentage, Bacillus subtilis ([2]; synthetic peptides): 5.97 ± 0.06
- Inhibitory percentage, Burkholderia cepacia ([3]; synthetic peptides): 20.51 ± 0.48
